Results from patent US11098040B2, “Compounds and methods of use” (Ferro Therapeutics, Inc., priority 2018, dated 2021).
Read-outs that look alike come from different tables or passages of the source. Values belong to the compound of their own block, whether it stands above or below them.

Assays:
H2228 = test: Cell viability assay (CellTiter Glo), lung cancer cell line H2228; assay type: cell-based; conditions: Homo sapiens, NCI-H2228; Cell Line H2228; read-out: IC50
Method: (§1) Cell viability assay was performed to assess the potency of the compounds in human cancer cell lines KP4 (pancreatic ductal adenocarcinoma), MiaPaCa-2 (pancreatic carcinoma), AsPC-1 (pancreatic adenocarcinoma, ascites), 143B (osteosarcoma), and SJSA-1 (osteosarcoma). Selected compounds were also assayed in a human breast epithelial cell line MCF-10A, a nontumorigenic cell line as a control to assess differential activity. Cells at a density of 500-5,000 cells/well were seeded in 96-well plates and incubated at 37° C. overnight. A series of 9 different concentrations of compound stocks (500×) were created by 3-fold serial dilution in DMSO. These compounds were further diluted in culture media and then added to cells so that the final DMSO concentration was equal to 0.25% or less. After 96 hours of incubation, 50 μL of CellTiter Glo reagent (Promega) was added to each well and luminescence was measured after 10 minutes using EnVision (PerkinElmer). Compounds titrated from top concentration of up to 30 μM. The select compounds were tested initially from 30 μM as the top concentration in duplicates (range of 4.6 nM-30 μM). […] Luminescence from cells treated with DMSO alone was set as Max and % of inhibition was calculated as follows: Inhibition %=(Max-Sample value)/Max*100. Data was analyzed using XL-fit software (ID Business Solutions Ltd.). IC50, relative IC50, or % of top inhibition was calculated.
A group of selected analogs were further profiled in cell viability assays described above in multiple additional cancer cell lines, including lung cancer, melanoma, hepatocarcinoma, pancreatic cancer, leukemia, lymphoma, ovarian cancer, breast cancer, colon cancer, and sarcoma cell lines. Initial cell seeding numbers were adjusted for each cell line. Typically, 500-5000 cells/well for adherent cells and 5000-10000/well for suspension cells were seeded in 96-well plates.

MiaPaCa-2 = test: Cell viability assay (CellTiter Glo), pancreatic carcinoma MiaPaCa-2; assay type: cell-based; conditions: Homo sapiens
Summary of the method: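 MiaPaCa-2 and AsPC-1 cells were seeded overnight at 37 °C and exposed for 96 h to 9-point, 3-fold dilutions from up to 30 μM (final DMSO ≤0.25%). CellTiter Glo luminescence was read, and inhibition was calculated relative to DMSO-only cells. IC50, relative IC50 or % top inhibition was derived.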

AsPC-1 = test: Cell viability assay (CellTiter Glo), pancreatic adenocarcinoma AsPC-1; assay type: cell-based; conditions: Homo sapiens, ASPC1; Cell Line AsPC-1; read-out: IC50
Method: as §1
The results of the assay in the pancreatic cell lines are given in Table 15a for PANC1, Table 15b for MiaPaCa-2, and Table 15c for AsPC-1.

143B = test: Cell viability assay (CellTiter Glo), osteosarcoma 143B; assay type: cell-based; conditions: Homo sapiens
Method: as §1
(§2) The results of the assay in sarcoma cell lines are given in Table 21a for HT-1080 luc2 (fibrosarcoma expressing a luciferase gene), Table 21b for 143B (osteosarcoma), and Table 21c for SJSA-1 (osteosarcoma).

KP4 = test: Cell viability assay (CellTiter Glo), pancreatic ductal adenocarcinoma KP4; assay type: cell-based, human; conditions: Homo sapiens, KP-4, Cell Line KP4; read-out: IC50
Summary of the method: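 Luminescent ATP readout (CellTiter Glo) after 96 h compound exposure, normalized to DMSO-treated cells as maximum. Compounds ran in duplicate, nine 3-fold steps from 30 μM down to 4.6 nM, final DMSO ≤0.25%; KP4 plated overnight at 1,000–10,000 cells/well. Outputs: IC50, relative IC50 or % top inhibition.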

Panc 02.13 = test: Cell proliferation assay, pancreatic cancer cell line Panc 02.13; assay type: cell-based
Method: (§3) Cell viability assay was performed to assess the potency of the compounds in human cancer cell lines 786-O (renal cell carcinoma) and SJSA-1 (osteosarcoma). Additional cell lines, such as those described above in Example 4 as well as various others, e.g., pancreatic cancer cell lines (Panc 02.13, BxPC-3, Panc 12, Panc 02.03, Panc 6.03, PSN-1, HPAC, and Capan-1) and prostate cancer cell lines (PC-3, DU145, 22Rv1, NCI-H660, BPH1, LNCaP, BM-1604, and MDA PCa 2b), were tested for select compounds as shown in Table 25.
(§4) The cell proliferation assays for the compounds shown Table 25 was performed according to the protocols described herein, including Examples 4 and 6.

BxPC-3 = test: Cell proliferation assay, pancreatic cancer cell line BxPC-3; assay type: cell-based; conditions: Homo sapiens
Method: as §3, §4

Panc 12 = test: Cell proliferation assay, pancreatic cancer cell line Panc 12; assay type: cell-based; conditions: Cell Line Panc 12
Method: as §3, §4

Panc 02.03 = test: Cell proliferation assay, pancreatic cancer cell line Panc 02.03; assay type: cell-based; conditions: Homo sapiens
Method: as §3, §4

Panc 6.03 = test: Cell proliferation assay, pancreatic cancer cell line Panc 6.03; assay type: cell-based
Method: as §3, §4

PSN-1 = test: Cell proliferation assay, pancreatic cancer cell line PSN-1; assay type: cell-based; conditions: Homo sapiens, PSN1
Method: as §3, §4

HPAC = test: Cell proliferation assay, pancreatic cancer cell line HPAC; assay type: cell-based; conditions: Homo sapiens
Method: as §3, §4

Capan-1 = test: Cell proliferation assay, pancreatic cancer cell line Capan-1; assay type: cell-based; conditions: Homo sapiens
Method: as §3, §4

SJSA-1 = test: Cell viability assay (CellTiter Glo), osteosarcoma SJSA-1; assay type: cell-based; conditions: Homo sapiens, 96 hours
Method: as §1, §2

MCF-10A = test: Cell viability assay (CellTiter Glo), non-tumorigenic breast epithelial cell line MCF-10A; assay type: cell-based; conditions: Homo sapiens, 96 hours
Summary of the method: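 Non-tumorigenic breast epithelial MCF-10A line, exposed for 96 hours to compound (top concentration up to 30 μM, 3-fold steps, duplicates, final DMSO 0.25% or less). ATP luminescence (CellTiter Glo) normalised to DMSO controls yields IC50, relative IC50 or % top inhibition; paclitaxel served as cytotoxic control.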

[1] = mouse, ip, 15 mg/kg
Method: (§5) Test compounds were dissolved either in 20% (w/w) sulfobutylether-β-cyclodextrin (SBECD) pH 3-7 aqueous solution, or 5% DMSO/(30-50%) PEG400/(65-45%) water. Test compound dosing solutions were administered intraperitoneally to Balb/c nude male mice. Blood samples were collected at various time points with EDTA-K2 as anti-coagulant on ice, and centrifuged to obtain plasma samples. The plasma samples were stored at −20° C. until analysis.
(§6) Into 10 μL of test compound plasma samples were added 2 μL DMSO then 200 μL of 5 ng/mL internal standard (VTSD) (Terfenadine) in MeOH/acetonitrile. The mixture was vortexed for 1 minute and centrifuged at 4000 rpm for 15 minutes. Calibration standards were prepared by spiking known amount of test compounds into blank plasma samples. The supernatant solution was diluted 5 times with Acetonitrile/H2O (with 0.1% formic acid, 1:1, v/v), and this is the solution for LC-MS/MS analysis. The limit of quantification (LOQ) was 1 ng/mL.
(§7) Typical HPLC mobile phases were mobile phase of 5 mM NH4OAc (with 0.05% formic acid); and mobile phase B of acetonitrile (with 0.1% formic acid). The HPLC column was Kinetex C18 (30 mm×3.00 mm). Mass spectrometer was tuned for each compound in the Multiple Reaction Monitoring (MRM) scanning mode and in the electrospray ionization mode. The lower limit of quantification was 1-10 ng.
(§8) In this study, K601 (RSL3) was formulated in 5% DMSO/30% PEG 400/65% water at 1.5 mg/mL. The volume of injection via intraperitoneal route was 10 mL/kg for a dose of 15 mg/kg. […] The limit of quantification (LOQ) was 1 ng/mL.
(§9) In this study, the compound was formulated in 20% (w/w) sulfobutylether-β-cyclodextrin (SBECD), pH 5 aqueous solution at 1.5 mg/mL. The volume of injection via intraperitoneal route was 10 mL/kg for a dose of 15 mg/kg. The concentration of test compounds in plasma were analyzed by LC-MS with the method described above. The limit of quantification was 1 ng/mL.
(§10) It was formulated in 5% DMSO/50% PEG400/45% Water pH adjusted to 4 with HCl as an aqueous solution at 1.0 mg/mL. The volume of injection via intraperitoneal route was 15 mL/kg for a dose of 15 mg/kg. The concentration of test compounds in plasma were analyzed by LC-MS with the method described above. The limit of quantification was 1 ng/mL. […] The limit of quantification was 1 ng/mL.
(§11) Compounds 24 and 28 were formulated in 20% (w/w) sulfobutylether-β-cyclodextrin (SBECD) with pH 3 and pH 4, respectively, as an aqueous solution at 1.0 mg/mL. Compound 67 was in 5% DMSO/50% PEG 400/45% water pH 4 (adjusted with 12 N HCl) aqueous solution at 1.0 mg/mL. The injection volume via intraperitoneal route was 10 mL/kg for a dose of 15 mg/kg. The concentration of test compounds in plasma were analyzed by LC-MS with the method described above. The limit of quantification was 1 ng/mL.

in vivo = conditions: male, Balb/c nude, mouse, ip, 15 mg/kg
Method: as §5, §6, §7, §8, §9, §10, §11

IC50 (H2228): 14.6 nM
IC50 (MiaPaCa-2; Cell Line Mia PaCa-2, read-out: IC50): 259 nM
IC50 (AsPC-1): 65.2 nM
IC50 (143B; Cell Line 143B, read-out: IC50): 1120 nM
IC50 (KP4): 4 nM
IC50 (Panc 02.13): 1110 nM
IC50 (BxPC-3): 910 nM
IC50 (Panc 12): 57.8 nM
IC50 (Panc 02.03): 394 nM
IC50 (Panc 6.03): 166 nM
IC50 (PSN-1): 183 nM
IC50 (HPAC): 321 nM
IC50 (Capan-1): > 1000 nM
Structure (SMILES): C[C@H]1Cc2c([nH]c3ccccc23)[C@H](c2ccc(N3CCC3)cc2)N1C(=O)CCl [Compound 239]

IC50 (MiaPaCa-2; MIA PaCa-2, pancreatic carcinoma, 96 hours, CellTiter Glo, read-out: IC50 MiaPaCa-2): 5 nM
IC50 (143B; 96 h, osteosarcoma, 96 hours, CellTiter Glo, read-out: IC50 143B): 9 nM
IC50 (SJSA-1): 18 nM
AUC Extr ([1]; male, Balb/c nude, in vivo): 7.26%
exposure (Cmax, AUC) compared with K601 (RSL3) ([1]; in vivo): higher exposure
AUC (in vivo): 123 ng·h/mL
AUC(0-inf) (in vivo): 132 ng·h/mL
AUC(0-t) (in vivo): 123 ng·h/mL
Cmax (in vivo): 126 ng/mL
MRT inf (in vivo): 1.4 h
Tmax (in vivo): 30 min
half-life (in vivo): 67.2 min
concentration at 0.5 h (in vivo; Calculated Concentration): 146 ng/mL
concentration at 1 h (in vivo; Calculated Concentration): 56.1 ng/mL
concentration at 4 h (in vivo; Calculated Concentration): 5.56 ng/mL
concentration at 0.5 h (in vivo; Calculated Concentration, Mean): 126 ng/mL
concentration at 1 h (in vivo; Calculated Concentration, Mean): 42.6 ng/mL
concentration at 2 h (in vivo; Calculated Concentration, Mean): 14.9 ng/mL
concentration at 4 h (in vivo; Calculated Concentration, Mean): 5.74 ng/mL
Structure (SMILES): COC(=O)[C@H]1Cc2c([nH]c3ccccc23)[C@H](c2ccc(C(=O)OC(C)(C)C)cc2)N1C(=O)CCl [Example 1]
IC50 (MCF-10A): 850 nM

detection in vivo of hydrolyzed products of K601 (RSL3) [1]: detected
Structure (SMILES): COC(=O)c1ccc([C@H]2c3[nH]c4ccccc4c3C[C@H](C(=O)O)N2C(=O)CCl)cc1 [Example 3]

detection in vivo of hydrolyzed products of K601 (RSL3) [1]: detected
Structure (SMILES): COC(=O)[C@H]1Cc2c([nH]c3ccccc23)[C@H](c2ccc(C(=O)O)cc2)N1C(=O)CCl [Example 4]

detection in vivo of hydrolyzed products of K601 (RSL3) [1]: detected
Structure (SMILES): O=C(O)c1ccc([C@H]2c3[nH]c4ccccc4c3C[C@H](C(=O)O)N2C(=O)CCl)cc1 [Example 5]
